According to US8198317B2, “Methylenedioxy phenolic compounds and their use to treat disease” (The Ohio State University Research Foundation, priority 2008, dated 2012):
Entries after “also recorded” stand apart in the source; their conditions may differ.

Legend:
Assay type in all cases: in vivo, rabbit
[1] = test system: New Zealand White rabbits; experiment: Plasma lipid profile in NZW rabbits; details: end of treatment
Procedure: (§1) Animal Model: 15 male New Zealand White rabbits (Charles River, Mass.) were fed with high fat diet (HFD) (Harlan Teklad rabbit diet with 0.5% cholesterol, TD 87251). After 4 weeks of high fat diet, rabbits were randomized into three different treatment groups, normal control (n=5), lipoic acid (100 mg/kg/day) (n=5), INV 70-65 (100 mg/kg/day) (n=5). These drugs were administered to the animals via their chow by mixing the drugs with the high fat diet. A fixed amount of chow and drugs admixed in the chow were fed to all animals every day after carefully calculating food intake in each rabbit. Drugs were dissolved in 100% ethanol and sprayed onto the diet and kept under vacuum to let ethanol evaporate overnight. Two (2) weeks after drug or control admixed HFD, all rabbits underwent aortic balloon denudation surgeries followed by 12 weeks of continued administration of drug or controls admixed with HFD. FIG. 29 provides an outline of the experimental design.
A lipid profile (Cholesterol, Triglycerides, direct HDL, LDL and VLDL) was performed after a total of 12 weeks of treatment with the drugs. One (1) ml of blood from the ear lobe vein was placed into tubes containing K EDTA at the beginning of the high cholesterol diet and again at the time of sacrifice. All values were expressed as mean±SD. The bar graph of each group both at the baseline and the end point measurement is presented. The statistical analysis was done with one way ANOVA.

[2] = test system: thoracic aorta of New Zealand White rabbits; experiment: Myograph experiments on thoracic aortic rings of NZW rabbits; details: NZW thoracic aorta, end of 12 weeks
Procedure: as §1
Rabbits were euthanized by injection of lethal doses of pentobarbital. The thoracic aortas were collected for the myograph studies. Two (2) mm thoracic aortic rings were suspended in individual organ chambers filled with physiological salt solution buffer (sodium chloride, 130 mEq/L; potassium chloride, 4.7 mEq/L; calcium dichloride, 1.6 mEq/L; magnesium sulfate, 1.17 mEq/L; potassium diphosphate, 1.18 mEq/L; sodium bicarbonate, 14.9 mEq/L; EDTA, 0.026 mEq/L; and glucose, 99.1 mg/dL [5.5 mmol/L]; pH, 7.4), aerated continuously with 5% carbon dioxide in oxygen at 37° C. Vessels were allowed to equilibrate for at least 1 hour at a resting tension of 30 mN before being subjected to graded doses of agonists. The vasoconstrictor agonist phenylephrine (PE) was used and responses were expressed as a percentage of the peak response to 120 mEq/L of potassium chloride. The vessels subjected to PE were washed thoroughly and allowed to equilibrate for 1 hour before beginning experiments with acetylcholine or sodium nitroprusside (SNP). […] Results for the vasodilators were expressed as a percentage of pre-contraction by PE (0.1 μM).

[3] = test system: New Zealand White rabbits; experiment: Oil Red O staining of abdominal aorta of NZW rabbits; details: NZW abdominal aorta
Procedure: as §1
Hypercholesterolemia and oxidative stress play an important role in the development of atherosclerosis. The rabbits were sacrificed and abdominal aortas were fixed in 4% PFA (paraformaldehyde). The lipid deposition in the aortic wall was then visualized by oil red staining.

[4] = test system: New Zealand White rabbits; experiment: MRI assessment of atherosclerosis in balloon denuded NZW rabbits; details: high fat diet, 100 mg/kg/day, 12 weeks
Procedure: as §1
MRI experiments were conducted at two time points: 1 week and 12 weeks after the balloon denudation procedure (FIG. 29). […] MR images were analyzed using a Siemens Leonardo Workstation (Siemens Healthcare Inc. Germany).
To assess the different rates of atherosclerosis plaque progression for each rabbit group, the aortic wall was identified in the pre-contrast images at both MRI time points. […] To account for the variable number of slices, for each rabbit a normalized aortic wall volume was calculated.
To assess plaque neovasculature progression in the different treatment groups, only the 12 weeks post balloon denudation MR images were used. […] The signal to noise ratio (SNR) for each slice was calculated as the mean signal obtained from the vessel wall divided by the standard deviation of the noise from a region outside the body. A ratio of the SNR enhancement for each rabbit was obtained by dividing the post and pre contrast calculated SNRs.

## O=C(O)CCCC[C@@H]1CCSS1 (racemic) [Lipoic Acid, lipoic acid, reference compound]
[1]
  HDL levels: increased moderately
  LDL level compared to normal control: moderate decreases; also recorded: lower
  TC level compared to normal control: moderate decreases
  VLDL levels compared to controls: no change
  triglyceride (TG) levels compared to controls: significantly decreased
[2]
  Ach LogEC50: −6.47 ± 0.18 M
  PE LogEC50: −6.48 ± 0.09 M
  SNP-1 LogEC50: −6.75 ± 0.21 M
[2]; % of peak response to KCl
  PE Maximum Effect: 154.0 ± 7.24%
[2]; % of pre-contraction by PE
  Ach Maximum Effect: −33.00 ± 2.94 %
  Insulin Maximum Effect: −107.8 ± 7.68%
  SNP-1 Maximum Effect: −89.04 ± 7.67%
[3]
  lipid content in the plaque area (Oil Red O) compared to the control group: reduction
[4]
  plaque burden by MRI: no difference
